Results: PubChem BioAssay AID248 (DTP/NCI, 2004)
Toxic doses and inconclusive results are not listed. Cut-off read from the data, not from the text of the source: active = T/C of 150% or more; inactive = T/C below 125%.

Tested on: L1210 leukemia ip in BDF1 mice, survival T/C
Experiment: NCI In Vivo Anticancer Drug Screen. Data for tumor model L1210 Leukemia (intraperitoneal) in B6D2F1 (BDF1) mice
Conditions: endpoint: mean survival time, higher = longer survival
In short: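 Ratio derived from survival: compound-dosed mice over vehicle-dosed mice, all bearing a transplantable tumor.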

[1] = dose: 100.0 mg/kg/injection, schedule: Q01DX001 (ip), vehicle: saline
[2] = dose: 100.0 mg/kg/injection, schedule: Q04DX003 (ip), vehicle: saline
[3] = dose: 200.0 mg/kg/injection, schedule: Q01DX001 (ip), vehicle: saline
[4] = dose: 200.0 mg/kg/injection, schedule: Q04DX003 (ip), vehicle: saline
[5] = dose: 400.0 mg/kg/injection, schedule: Q01DX001 (ip), vehicle: saline
[6] = dose: 400.0 mg/kg/injection, schedule: Q04DX003 (ip), vehicle: saline

Measured: T/C

O=C(O)C1C2CC(C(Br)C2Br)C1C(=O)O (centres undefined)
inactive: [1] 98 % of control | dose: 100.0 mg/kg/injection, schedule: Q01DX009 (ip), vehicle: Klucel (hydroxypropylcellulose) (HPC) 95 % of control | dose: 100.0 mg/kg/injection, schedule: Q01DX009 (ip), vehicle: acetone 98 % of control | dose: 100.0 mg/kg/injection, schedule: Q04DX003 (ip), vehicle: Klucel (hydroxypropylcellulose) (HPC) 100 % of control | [2] 94 % of control | [3] 95 % of control | dose: 200.0 mg/kg/injection, schedule: Q01DX009 (ip), vehicle: Klucel (hydroxypropylcellulose) (HPC) 97 % of control | dose: 200.0 mg/kg/injection, schedule: Q01DX009 (ip), vehicle: acetone 93 % of control | dose: 200.0 mg/kg/injection, schedule: Q04DX003 (ip), vehicle: Klucel (hydroxypropylcellulose) (HPC) 103 % of control | [4] 94 % of control | [5] 96 % of control | dose: 400.0 mg/kg/injection, schedule: Q01DX009 (ip), vehicle: Klucel (hydroxypropylcellulose) (HPC) 98 % of control | dose: 400.0 mg/kg/injection, schedule: Q01DX009 (ip), vehicle: acetone 104 % of control | dose: 400.0 mg/kg/injection, schedule: Q04DX003 (ip), vehicle: Klucel (hydroxypropylcellulose) (HPC) 105 % of control | [6] 91 % of control

NC(=O)c1cccc[n+]1Cc1cc(=O)[nH]c(=O)[nH]1
inactive: [2] 93 % of control | [4] 101 % of control | [6] 89 % of control

COC(=O)c1ccccc1NCCO
inactive: [1] 101 % of control | [3] 107 % of control | [5] 101 % of control

c1coc(CNCNCc2ccco2)c1
inactive: dose: 155.0 mg/kg/injection, schedule: Q01DX Z (ip), vehicle: methylcellulose (MC) 94 % of control | dose: 233.0 mg/kg/injection, schedule: Q01DX Z (ip), vehicle: methylcellulose (MC) 105 % of control | dose: 350.0 mg/kg/injection, schedule: Q01DX Z (ip), vehicle: methylcellulose (MC) 100 % of control
